Laboratory results from ChEMBL document CHEMBL1201861, “Genomics of Drug Sensitity in Cancer screening data, Wellcome Trust Sanger Institute”.
pIC50: −log10 of the molar value. Counter-ions that a name gives are not always drawn.

Legend:
Test in all cases: cells
Type in all cases: functional, cell-based, Homo sapiens
[1] = tested on: CTV-1; conditions: Homo sapiens, CTV-1;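 note: growth inhibition of the cell line, read out with a cell viability assay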
Description: SANGER: Inhibition of human CTV-1 cell growth in a cell viability assay.

[2] = tested on: CW-2; conditions: Homo sapiens, CW-2;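 note: growth inhibition of CW-2 cells, read out by a cell viability assay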
Description: SANGER: Inhibition of human CW-2 cell growth in a cell viability assay.

[3] = tested on: D-263MG; conditions: Homo sapiens, D-263MG
Description: SANGER: Inhibition of human D-263MG cell growth in a cell viability assay.

[4] = tested on: D-392MG; conditions: Homo sapiens, D-392MG
[5] = tested on: DEL; conditions: Homo sapiens, DEL;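 note: growth inhibition of the human DEL cell line, read out with a cell viability assay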
Description: SANGER: Inhibition of human DEL cell growth in a cell viability assay.

[6] = tested on: DMS-79; conditions: Homo sapiens, DMS-79;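 note: growth inhibition measured with a cell viability assay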
Description: SANGER: Inhibition of human DMS-79 cell growth in a cell viability assay.

[7] = tested on: EKVX; conditions: Homo sapiens, EKVX;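 note: growth inhibition of human EKVX cells, read out with a cell viability assay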
Description: SANGER: Inhibition of human EKVX cell growth in a cell viability assay.

[8] = tested on: EW-1; conditions: Homo sapiens, EW-1;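 note: growth inhibition of the human EW-1 cell line, read out by a cell viability assay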
Description: SANGER: Inhibition of human EW-1 cell growth in a cell viability assay.

[9] = tested on: EW-13; conditions: Homo sapiens, EW-13;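 note: growth inhibition of EW-13 cells, read out with a cell viability assay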
Description: SANGER: Inhibition of human EW-13 cell growth in a cell viability assay.

[10] = tested on: EOL1; conditions: Homo sapiens, EOL1;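 note: growth inhibition of EoL-1 cells, read out by a cell viability assay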
Description: SANGER: Inhibition of human EoL-1-cell cell growth in a cell viability assay.

[11] = tested on: GI-ME-N; conditions: Homo sapiens, GI-ME-N;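 note: growth inhibition of human GI-ME-N cells, read out with a cell viability assay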
Description: SANGER: Inhibition of human GI-ME-N cell growth in a cell viability assay.

[12] = tested on: GT3TKB; conditions: Homo sapiens, GT3TKB;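 note: growth inhibition of the cell line, read out with a cell viability assay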
Description: SANGER: Inhibition of human GT3TKB cell growth in a cell viability assay.

[13] = tested on: HOP-62; conditions: Homo sapiens, HOP-62;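 note: cell growth inhibition determined with a viability assay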
Description: SANGER: Inhibition of human HOP-62 cell growth in a cell viability assay.

[14] = tested on: HT-144; conditions: Homo sapiens, HT-144
Description: SANGER: Inhibition of human HT-144 cell growth in a cell viability assay.

[15] = tested on: IST-MES1; conditions: Homo sapiens, IST-MES1;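 note: growth inhibition of IST-MES1 cells, measured with a cell viability assay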
Description: SANGER: Inhibition of human IST-MES1 cell growth in a cell viability assay.

[16] = tested on: J-RT3-T3-5; conditions: Homo sapiens, J-RT3-T3-5;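 note: cell viability assay measuring growth inhibition of human J-RT3-T3-5 cells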
Description: SANGER: Inhibition of human J-RT3-T3-5 cell growth in a cell viability assay.

[17] = tested on: KG-1; conditions: Homo sapiens, KG-1;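 note: growth inhibition of KG-1 cells, read out by a cell viability assay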
Description: SANGER: Inhibition of human KG-1 cell growth in a cell viability assay.

[18] = tested on: KINGS-1; conditions: Homo sapiens, KINGS-1;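 note: cell viability assay measuring suppression of KINGS-1 cell growth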
Description: SANGER: Inhibition of human KINGS-1 cell growth in a cell viability assay.

[19] = tested on: KMOE-2; conditions: Homo sapiens, KMOE-2;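 note: growth inhibition of human KMOE-2 cells, read out with a cell viability assay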
Description: SANGER: Inhibition of human KMOE-2 cell growth in a cell viability assay.

[20] = tested on: KURAMOCHI; conditions: Homo sapiens, KURAMOCHI;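 note: growth inhibition of KURAMOCHI cells, read out with a cell viability assay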
Description: SANGER: Inhibition of human KURAMOCHI cell growth in a cell viability assay.

[21] = tested on: LAMA-84; conditions: Homo sapiens, LAMA-84;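 note: growth inhibition of LAMA-84 cells, read out with a cell viability assay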
Description: SANGER: Inhibition of human LAMA-84 cell growth in a cell viability assay.

[22] = tested on: LB373-MEL-D; conditions: Homo sapiens, LB373-MEL-D;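 note: growth inhibition of the cell line, read out in a cell viability assay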
Description: SANGER: Inhibition of human LB373-MEL-D cell growth in a cell viability assay.

[23] = tested on: LXF-289 cell line; conditions: Homo sapiens, LXF-289
Description: SANGER: Inhibition of human LXF-289 cell growth in a cell viability assay.

[24] = tested on: MFM-223; conditions: Homo sapiens, MFM-223
Description: SANGER: Inhibition of human MFM-223 cell growth in a cell viability assay.

[25] = tested on: MHH-PREB-1; conditions: Homo sapiens, MHH-PREB-1;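 note: cell viability assay measuring inhibition of proliferation of human MHH-PREB-1 cells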
Description: SANGER: Inhibition of human MHH-PREB-1 cell growth in a cell viability assay.

[26] = tested on: MLMA; conditions: Homo sapiens, MLMA;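 note: growth inhibition of MLMA cells (human), determined through a cell viability readout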
Description: SANGER: Inhibition of human MLMA cell growth in a cell viability assay.

[27] = tested on: MOLT-4; conditions: Homo sapiens, MOLT-4;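 note: growth inhibition of MOLT-4 cells, determined with a cell viability readout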
Description: SANGER: Inhibition of human MOLT-4 cell growth in a cell viability assay.

[28] = tested on: MS-1; conditions: Homo sapiens, MS-1;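 note: growth inhibition of MS-1 cells, read out by cell viability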
Description: SANGER: Inhibition of human MS-1 cell growth in a cell viability assay.

[29] = tested on: NB13; conditions: Homo sapiens, NB13;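 note: cell viability readout measuring growth inhibition of human NB13 cells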
Description: SANGER: Inhibition of human NB13 cell growth in a cell viability assay.

[30] = tested on: NCI-H1355; conditions: Homo sapiens, NCI-H1355;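 note: growth inhibition of human NCI-H1355 cells, read out by a cell viability assay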
Description: SANGER: Inhibition of human NCI-H1355 cell growth in a cell viability assay.

[31] = tested on: NCI-H1770; conditions: Homo sapiens, NCI-H1770;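 note: growth inhibition of NCI-H1770 cells determined with a viability readout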
Description: SANGER: Inhibition of human NCI-H1770 cell growth in a cell viability assay.

[32] = tested on: OCI-AML2; conditions: Homo sapiens, OCI-AML2;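 note: growth inhibition of OCI-AML2 cells, read out with a cell viability assay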
Description: SANGER: Inhibition of human OCI-AML2 cell growth in a cell viability assay.

[33] = tested on: OS-RC-2; conditions: Homo sapiens, OS-RC-2;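 note: growth inhibition of human OS-RC-2 cells, measured by a cell viability assay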
Description: SANGER: Inhibition of human OS-RC-2 cell growth in a cell viability assay.

[34] = tested on: PSN1; conditions: Homo sapiens, PSN1;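 note: suppression of growth of human PSN1 cells, read out by a cell viability assay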
Description: SANGER: Inhibition of human PSN1 cell growth in a cell viability assay.

[35] = tested on: QIMR-WIL; conditions: Homo sapiens, QIMR-WIL;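 note: growth inhibition of QIMR-WIL cells, read out with a cell viability assay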
Description: SANGER: Inhibition of human QIMR-WIL cell growth in a cell viability assay.

[36] = tested on: RKO; conditions: Homo sapiens, RKO;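 note: growth inhibition of human RKO cells, read out with a cell viability assay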
Description: SANGER: Inhibition of human RKO cell growth in a cell viability assay.

[37] = tested on: RPMI-8226; conditions: Homo sapiens, RPMI-8226
Description: SANGER: Inhibition of human RPMI-8226 cell growth in a cell viability assay.

[38] = tested on: SCC-15; conditions: Homo sapiens, SCC-15;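 note: growth inhibition of SCC-15 cells, read out with a cell viability assay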
Description: SANGER: Inhibition of human SCC-15 cell growth in a cell viability assay.

[39] = tested on: SK-LMS-1; conditions: Homo sapiens, SK-LMS-1;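 note: growth inhibition of human SK-LMS-1 cells, read out with a cell viability assay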
Description: SANGER: Inhibition of human SK-LMS-1 cell growth in a cell viability assay.

[40] = tested on: SK-NEP-1; conditions: Homo sapiens, SK-NEP-1;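 note: growth inhibition of human SK-NEP-1 cells, read out by a cell viability assay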
Description: SANGER: Inhibition of human SK-NEP-1 cell growth in a cell viability assay.

[41] = tested on: SNU-C2B; conditions: Homo sapiens, SNU-C2B;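 note: cell viability readout used to measure compound-driven suppression of SNU-C2B cell proliferation, IC50 marking half-maximal growth inhibition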
Description: SANGER: Inhibition of human SNU-C2B cell growth in a cell viability assay.

[42] = tested on: SW 962; conditions: Homo sapiens, SW 962;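 note: growth inhibition of human SW962 cells, read out by a cell viability assay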
Description: SANGER: Inhibition of human SW962 cell growth in a cell viability assay.

[43] = tested on: SW982; conditions: Homo sapiens, SW982;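 note: growth inhibition of SW982 cells, read out with a cell viability assay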
Description: SANGER: Inhibition of human SW982 cell growth in a cell viability assay.

[44] = tested on: A101D; conditions: Homo sapiens, A101D;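 note: growth inhibition of the cell line, measured with a viability assay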
Description: SANGER: Inhibition of human A101D cell growth in a cell viability assay.

[45] = tested on: A704; conditions: Homo sapiens, A704;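 note: growth inhibition of human A704 cells, read out with a cell viability assay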
Description: SANGER: Inhibition of human A704 cell growth in a cell viability assay.

[46] = tested on: BB65-RCC; conditions: Homo sapiens, BB65-RCC;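 note: growth inhibition of the cell line, measured with a cell viability assay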
Description: SANGER: Inhibition of human BB65-RCC cell growth in a cell viability assay.

[47] = tested on: BT-474; conditions: Homo sapiens, BT-474
Description: SANGER: Inhibition of human BT-474 cell growth in a cell viability assay.

[48] = tested on: Becker; conditions: Homo sapiens, Becker;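 note: growth inhibition of Becker cells, read out with a cell viability assay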
Description: SANGER: Inhibition of human Becker cell growth in a cell viability assay.

[49] = tested on: TE-6; conditions: Homo sapiens, TE-6;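 note: growth inhibition of TE-6 cells, read out with a cell viability assay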
Description: SANGER: Inhibition of human TE-6 cell growth in a cell viability assay.

With `COC1=CC(c2cc3ccccc3[nH]2)=N/C1=C\c1[nH]c(C)cc1C` [OBATOCLAX MESYLATE] the pIC50 [1] was 7.12, the pIC50 [2] was less than 4.80 and the pIC50 [3] was 5.50. It also gave a pIC50 [4] of 5.80, a pIC50 [5] of 7.08 and a pIC50 [6] of less than 4.80. The pIC50 [7] was 5.78, the pIC50 [8] was greater than 7.20 and the pIC50 [9] was 7.36. It also gave a pIC50 [10] of 6.94, a pIC50 [11] of 5.30 and a pIC50 [12] of 6.79. For the same compound, the pIC50 [13] was 7.08, the pIC50 [14] was greater than 7.20 and the pIC50 [15] was 6.54. It also gave a pIC50 [16] of 6.93, a pIC50 [17] of 6.48 and a pIC50 [18] of 6.08. For the same compound, the pIC50 [19] was 7.04, the pIC50 [20] was 7.07 and the pIC50 [21] was 5.59. The pIC50 [22] was 7.37, the pIC50 [23] was 6.59 and the pIC50 [24] was 5.47. For the same compound, the pIC50 [25] was greater than 7.20, the pIC50 [26] was 7.12 and the pIC50 [27] was 6.32. For the same compound, the pIC50 [28] was 5.89, the pIC50 [29] was 7.19 and the pIC50 [30] was 6.82. It also gave a pIC50 [31] of 7.33, a pIC50 [32] of 7.24 and a pIC50 [33] of 6.37. The pIC50 [34] was greater than 7.20, the pIC50 [35] was 6.88 and the pIC50 [36] was greater than 7.20. It also gave a pIC50 [37] of 6.50, a pIC50 [38] of 7.31 and a pIC50 [39] of 6.50. The pIC50 [40] was 5.74, the pIC50 [41] was 6.06 and the pIC50 [42] was 7.18. It also gave a pIC50 [43] of 6.35, a pIC50 [44] of 7.52 and a pIC50 [45] of 7.04. The pIC50 [46] was 6.76, the pIC50 [47] was 6.76 and the pIC50 [48] was 5.78. It also gave a pIC50 [49] of 5.98.

`CO[C@H]1C[C@@H]2CC[C@@H](C)[C@@](O)(O2)C(=O)C(=O)N2CCCC[C@H]2C(=O)O[C@H]([C@H](C)C[C@@H]2CC[C@@H](OC(=O)C(C)(CO)CO)[C@H](OC)C2)CC(=O)[C@H](C)/C=C(\C)[C@@H](O)[C@@H](OC)C(=O)[C@H](C)C[C@H](C)/C=C/C=C/C=C/1C` [TEMSIROLIMUS] was tested, and the pIC50 [1] was less than 6.70, the pIC50 [2] was less than 6.70 and the pIC50 [3] was 6.80. The pIC50 [4] was less than 6.70, the pIC50 [5] was 8.26 and the pIC50 [6] was less than 6.70. It also gave a pIC50 [7] of less than 6.70, a pIC50 [8] of less than 6.70 and a pIC50 [9] of 7.84. The pIC50 [10] was 7.79, the pIC50 [11] was less than 6.70 and the pIC50 [12] was 7.04. It also gave a pIC50 [13] of less than 6.70, a pIC50 [14] of less than 6.70 and a pIC50 [15] of less than 6.70. The pIC50 [16] was 7.91, the pIC50 [17] was 7.89 and the pIC50 [18] was less than 6.70. It also gave a pIC50 [19] of less than 6.70, a pIC50 [20] of less than 6.70 and a pIC50 [21] of 8.39. For the same compound, the pIC50 [22] was less than 6.70, the pIC50 [23] was 6.83 and the pIC50 [24] was less than 6.70. For the same compound, the pIC50 [25] was 9.30, the pIC50 [26] was 8.48 and the pIC50 [27] was 8.37. It also gave a pIC50 [28] of less than 6.70, a pIC50 [29] of less than 6.70 and a pIC50 [30] of 7.25. It also gave a pIC50 [31] of less than 6.70, a pIC50 [32] of less than 6.70 and a pIC50 [33] of 7.77. The pIC50 [34] was less than 6.70, the pIC50 [35] was 8.24 and the pIC50 [36] was 6.87. The pIC50 [37] was 8.38, the pIC50 [38] was 6.89 and the pIC50 [39] was less than 6.70. The pIC50 [40] was 8.83, the pIC50 [41] was less than 6.70 and the pIC50 [42] was 7.81. The pIC50 [43] was less than 6.70, the pIC50 [44] was 7.31 and the pIC50 [45] was less than 6.70. It also gave a pIC50 [46] of 8.15, a pIC50 [47] of less than 6.70 and a pIC50 [48] of 7.10. For the same compound, the pIC50 [49] was 6.72.
